Measurements from patent EP2235030B1, “COMPOUND OF THE DISACCHARIDE TYPE COMPOSITION COMPRISING AND METHOD FOR PRODUCING SUCH A COMPOUND” (Université de Picardie Jules Verne, priority 2007, dated 2009).
Marks after values point to notes of the source that are not given here.

Tests used:
[1] = system: pucerons M. persicae et M. euphorbiae; assay: Aphid artificial diet test, statements made for both aphid species without distinction; type: in vivo, Myzus persicae, Macrosiphum euphorbiae
Experimental: (§1) Deux espèces de pucerons Myzus persicae (Sulzer) et Macrosiphum euphorbiae (Thomas) ont été utilisées pour cette étude. Des adultes ont été isolés et placés dans des cages de PVC sur milieu artificiel pendant une journée afin de synchroniser la descendance. Les néonates, âgés de moins de 24 h sont alors placés sur milieu artificiel contenant des concentrations variant de 0 à 100 µg.mL^-1 du composé DPS2, synthétisé précédemment, selon un protocole décrit par Saguez J, Dubois F, Vincent C, Laberche JC, Sangwan-Norreel BS et Giordanengo P (2006), dans l'article intitulé « Differential aphicidal effects of chitinase inhibitors on the polyphagous homopteran Myzus pensicae (Sulzer) » et publié dans Pest Manag Sci 62: 1150-1154. Plusieurs paramètres démographiques sont relevés quotidiennement afin de déterminer la durée du développement larvaire, la mortalité larvaire et la fécondité et de calculer un paramètre synthétique, le rm (taux intrinsèque d'accroissement des populations) et le temps de doublement des populations. Un minimum de 50 pucerons de chaque espèce est testé par traitement et les individus sont suivis quotidiennement. La taille des pucerons a été mesurée une semaine après le début de l'expérience, sous loupe binoculaire à l'aide d'un oculaire biométrique. Les effets du DPS2 sur la survie larvaire sont analysés par un test du χ^2 de Pearson. Une analyse de variance (ANOVA monofactorielle) a été réalisée avec le logiciel Statistica 5.5 (StatSoft®, Tulsa, Oklahoma, USA) pour tester les effets du DPS2 sur les paramètres démographiques des aphides. Les paramètres significativement altérés sont ensuite analysés par un test de Fisher (PLSD) au seuil de significativité P <0,05.

[2] = system: Macrosiphum euphorbiae (Thomas); assay: Aphid neonates reared on artificial diet supplemented with DPS2: demographic parameters and body size; type: in vivo; details: for rm: intrinsic rate of population increase
Experimental: as §1
(§2) Dans les tableaux I, II et III qui suivent, les résultats sont exprimés sous la forme : moyenne ± écart-type. L'effet significatif (*) été testé par une analyse de variance monofactorielle (F) à P<0.05. Les valeurs de même rang suivies par une même lettre indiquent qu'il n'existe pas de différence significative d'après le test du PLSD de Fisher (P<0.05).

Myzus persicae (Sulzer) = assay: Aphid neonates reared on artificial diet supplemented with DPS2: demographic parameters; type: in vivo; details: for Temps de doublement de la population / Fécondité journalière / Période préreproductive / rm: mean ± SD; for rm: intrinsic rate of population increase
Experimental: as §1, §2

[3] = system: chitinases d'insectes et de champignons; details: competitive inhibition; cited from earlier work
[4] = DPS2 1 µg.mL^-1 in artificial diet, mean ± SD
[5] = DPS2 10 µg.mL^-1 in artificial diet, mean ± SD
[6] = DPS2 50 µg.mL^-1 in artificial diet, mean ± SD
[7] = DPS2 100 µg.mL^-1 in artificial diet, mean ± SD
[8] = DPS2 1 µg.mL^-1 in artificial diet
[9] = DPS2 10 µg.mL^-1 in artificial diet
[10] = DPS2 50 µg.mL^-1 in artificial diet
[11] = DPS2 100 µg.mL^-1 in artificial diet

CCCOC1O[C@H](COS(=O)(=O)O)[C@@H](O[C@@H]2O[C@H](CO)[C@@H](O)[C@H](O)[C@H]2NC(C)=O)[C@H](O)[C@H]1OC(C)=O (stereo partly shown) [DPS2]
processus de mue ([1]; DPS2 between 50 and 100 µg.mL^-1, many aphids die before leaving the old cuticle): affectés | taux intrinsèque d'accroissement des populations (rm) ([1]; both aphid species, including the lowest concentration of 1 µg.mL^-1): réduite | concentration dès laquelle les effets aphicides maximum sont obtenus ([1]; whatever parameter and aphid species, effects similar at 50 and 100 µg.mL^-1): 50 µg/mL | taille des pucerons ([2]; DPS2 1 µg.mL-1 in artificial diet, after 7 days, mean ± SD): 2,2 ± 0,3^a mm | Temps de doublement de la population ([2]; DPS2 1 µg.mL^-1, mean ± SD): 4,7 ± 1,0^ab jours | Fécondité journalière [2, 4]: 1,16 ± 0,36^a larves.femelles-1 .jour-1 | Période préreproductive [2, 4]: 11,3 ± 2,1^a jours | taille des pucerons ([2]; DPS2 10 µg.mL-1 in artificial diet, after 7 days, mean ± SD): 2,1 ± 0,3^b mm | Temps de doublement de la population ([2]; DPS2 10 µg.mL^-1, mean ± SD): 5,5 ± 1,3^b jours | Fécondité journalière [2, 5]: 1,06 ± 0,34^a larves.femelles-1 .jour-1 | Période préreproductive [2, 5]: 12,1 ± 1,6^a jours | taille des pucerons ([2]; DPS2 50 µg.mL-1 in artificial diet, after 7 days, mean ± SD): 1,8 ± 0,2^bc mm | Temps de doublement de la population ([2]; DPS2 50 µg.mL^-1, mean ± SD): 8,1 ± 1,6^c jours | Fécondité journalière [2, 6]: 0,81 ± 0,20^b larves.femelles-1 .jour-1 | Période préreproductive [2, 6]: 13,4 ± 1,2^b jours | taille des pucerons ([2]; DPS2 100 µg.mL-1 in artificial diet, after 7 days, mean ± SD): 1,7 ± 0,2^c mm | Temps de doublement de la population ([2]; DPS2 100 µg.mL^-1, mean ± SD): 6,5 ± 2,0^c jours | Fécondité journalière [2, 7]: 0,73 ± 0,22^b larves.femelles-1 .jour-1 | Période préreproductive [2, 7]: 13,5 ± 1,6^b jours | mortality at 50 µg/mL ([2]; Macrosiphum euphorbiae, 50 µg.mL^-1, read-out: mortalité larvaire): 49% | mortality at 100 µg/mL ([2]; Macrosiphum euphorbiae, 100 µg.mL^-1, read-out: mortalité larvaire): 53% | taille des pucerons ([2]; from 10 µg.mL^-1 upwards): réduite | augmentation du temps de doublement des populations ([2]; highest concentrations, 'près de'): ~4 jours | durée de la période pré-reproductive (augmentation) ([2]; increase versus control diet, at the highest concentrations): deux jours | rm ([2]; DPS2 1 µg.mL^-1, mean ± SD): 0,16 ± 0,04^b femelles.femelles^-1.jours^-1 | rm ([2]; DPS2 10 µg.mL^-1, mean ± SD): 0,13 ± 0,03^b femelles.femelles^-1.jours^-1 | rm ([2]; DPS2 50 µg.mL^-1, mean ± SD): 0,09 ± 0,03^c femelles.femelles^-1.jours^-1 | rm ([2]; DPS2 100 µg.mL^-1, mean ± SD): 0,08 ± 0,03^c femelles.femelles^-1.jours^-1 | Temps de doublement de la population (Myzus persicae (Sulzer); DPS2 1 µg.mL^-1): 5,6 ± 1,8^b jours | Fécondité journalière (Myzus persicae (Sulzer); [8]): 0,99 ± 0,27^a larves.femelles-1.jour-1 | Période préreproductive (Myzus persicae (Sulzer); [8]): 11,6 ± 1,9^b jours | Temps de doublement de la population (Myzus persicae (Sulzer); DPS2 10 µg.mL^-1): 5,4 ± 1,2^b b jours | Fécondité journalière (Myzus persicae (Sulzer); [9]): 0,91 ± 0,28^b larves.femelles-1.jour-1 | Période préreproductive (Myzus persicae (Sulzer); [9]): 10,9 ± 1,5^a jours | Temps de doublement de la population (Myzus persicae (Sulzer); DPS2 50 µg.mL^-1): 5,9 ± 1,6^b b jours | Fécondité journalière (Myzus persicae (Sulzer); [10]): 0,74 ± 0,24^bc larves.femelles-1.jour-1 | Période préreproductive (Myzus persicae (Sulzer); [10]): 11,1 ± 1,4^a jours | Temps de doublement de la population (Myzus persicae (Sulzer); DPS2 100 µg.mL^-1): 6,5 ± 2,0^a jours | Fécondité journalière (Myzus persicae (Sulzer); [11]): 0,65 ± 0,11^bc larves.femelles-1.jour-1 | Période préreproductive (Myzus persicae (Sulzer); [11]): 11,9 ± 1,7^b jours | durée de la période pré-reproductive (augmentation) (Myzus persicae (Sulzer); increase versus control diet): augmentée d'environ une journée | rm (Myzus persicae (Sulzer); DPS2 1 µg.mL^-1): 0,13 ± 0,04^b femelles.femelles^-1 .jours^-1 | rm (Myzus persicae (Sulzer); DPS2 10 µg.mL^-1): 0,13 ± 0,03^b femelles.femelles^-1 .jours^-1 | rm (Myzus persicae (Sulzer); DPS2 50 µg.mL^-1): 0,12 ± 0,03^bc femelles.femelles^-1 .jours^-1 | rm (Myzus persicae (Sulzer); DPS2 100 µg.mL^-1): 0,11 ± 0,03^c femelles.femelles^-1 .jours^-1

allosamidine
activité inhibitrice contre les chitinases [3]: puissante activité inhibitrice
